Measured values from patent publication US20030211636A1, “Point of care test for measurement of therapeutic drug levels” (Pfizer Inc., priority 2002, published 2003).
Like-named read-outs stand apart in the source and are kept apart here.

Legend:
[1] = Compound 122 saliva concentrations in healthy human subjects after oral administration (HPLC-MS/MS); type: in vivo; conditions: for concentration at 2 h / concentration at 4 h / concentration at 8 h / concentration at 24 h / concentration at 0 h: human, saliva, po
Description: (§1) Stock solutions of Compound 122-HCl salt and internal standard 2-difluoromethoxy-5-trifluoromethoxy-benzyl)-(2-phenyl-piperidin-3-yl)-amine] HCl salt (hereinafter referred to as IS, for internal standard) were prepared at concentrations of 100 μg/ml in 1:1 Methanol/Water and stored at −20° C. […] Serial dilutions of the stock solutions were prepared in 1:1 Methanol/Water as needed. Standard curve samples were freshly prepared using serial dilutions of stock so that equivalent additions produced 0.1, 0.2, 0.5, 2, 10, and 50 ng/ml solutions in Control Human Saliva (CHS). Quality control samples were prepared from a different stock solution similarly at 0.15, 5, and 40 ng/ml in CHS.
Aliquots (50 μl) of Human saliva, 200 μl of 0.1% Ammonium Hydroxide and 50 μl of 2.0 ng/ml IS were added, in sequence, to one well of a 96 well block. The plate was centrifuged briefly to consolidate the above contents and placed onto a TomTec Quadra 96. An automatic program was used that performs the following steps: conditions a Waters brand 10 mg Oasis HLB plate with 100 μl Methanol and then 200 μl 50/50 Methanol/Water (containing 2% v/v Ammonium Hydroxide), transfers the 300 μl of sample to the plate, washes the plate with 400 μl of 50/50 Methanol/Water (containing 2% v/v Ammonium Hydroxide) and then elutes the drug and IS into a clean 96 deep well block with 200 μl of 70/30 Methanol/Water (containing 2% v/v Acetic Acid). The eluent was isolated, evaporated to dryness under a stream of Nitrogen, and reconstituted in 100 μl 60/40 Methanol/10 mM Ammonium Acetate (both containing 0.05% Formic Acid) and vortexed for approximately 30 seconds. The plate was then centrifuged for ˜1 minute at about 3000 RPM. Injection volumes introduced into HPLC system were typically […].
The mobile phase was a binary mixture (60/40) of Methanol and 10 mM Ammonium Acetate (both containing 0.05% Formic Acid). The analytical column was a Phenomenex LUNA Phenyl Hexyl, 5μ, 2.00×50 mm LC/MS column preceded by a 2.0 micron stainless steel precolumn filter. A Hewlett Packard 1100 series quaternary pump was used and a mobile phase flow rate of 0.30 ml/min was maintained. A CTC Analytics (LEAP) HTS PAL autosampler injected the 10 μl sample aliquots onto the column at approximately 3 minute intervals.
The analysis was performed on a Perkin Elmer SCIEX API 3000 triple quadrupole mass spectrometer operated in the positive ion mode. The effluent from the HPLC column was directly introduced into the TurbolonSpray ion source, which was operated at 1500V with a temperature of 375° C. and 6 L/sec nitrogen gas. Nitrogen nebulizer gas was set to 10 and curtain gas was set to 9. Analyte and IS responses were measured using multiple reaction monitoring (MRM). Protonated molecular ions for drug (m/z 381.4), and I.S. (m/z 417.1) were dissociated by collision with nitrogen. Collision gas (CAD) was set to 5 and a collision energy of 32 eV was used. Product ions at m/z 160.0 were monitored for both drug and IS runs.
Subjects were divided into three groups of six individuals: CYP2D6 extensive metabolizers (including one “intermediate” metabolizer), CYP2D6 extensive metabolizers receiving concurrent paroxetine as an inhibitor of CYP2D6 (also including one intermediate metabolizer), and CYP2D6 poor metabolizers. […] Saliva samples were collected on the first day of each study leg.
Samples were subjected to a solid phase extraction procedure followed by chromatography and analysis on a Sciex API3000 tandem quadrupole mass spectrometer.
Mean values were calculated in those cases in which half or greater of the individual values were >LLOQ. A value of zero was used in those cases wherein concentrations were <LLOQ. […] Cav is defined by AUC (0-24 hr)/24.

[2] = Stability of Compound 122 stock solution; type: physicochemical; conditions: HCl salt, 100 μg/ml in 1:1 Methanol/Water, stored at −20° C.
Description: as §1

[3] = 10 mg, EM + paroxetine, Day 1, 10 mg q.d. oral, read-out: Mean saliva concentration, EM + paroxetine, Mean ± SD
[4] = 10 mg, EM + paroxetine, Day 6, 10 mg b.i.d. oral, read-out: Mean saliva concentration, EM + paroxetine, Mean ± SD
[5] = 10 mg, EM, Day 1, 10 mg q.d. oral, read-out: Mean saliva concentration, EM, Mean ± SD
[6] = 10 mg, EM, Day 6, 10 mg b.i.d. oral, read-out: Mean saliva concentration, EM, Mean ± SD
[7] = 10 mg, PM, Day 1, 10 mg q.d. oral, read-out: Mean saliva concentration, PM, Mean ± SD
[8] = 10 mg, PM, Day 6, 10 mg b.i.d. oral, read-out: Mean saliva concentration, PM, Mean ± SD
[9] = 30 mg, EM + paroxetine, Day 11, 30 mg q.d. oral, read-out: Mean saliva concentration, EM + paroxetine, Mean ± SD
[10] = 30 mg, EM + paroxetine, Day 16, 30 mg b.i.d. oral, read-out: Mean saliva concentration, EM + paroxetine, Mean ± SD
[11] = 30 mg, EM, Day 11, 30 mg q.d. oral, read-out: Mean saliva concentration, EM, Mean ± SD
[12] = 30 mg, EM, Day 16, 30 mg b.i.d. oral, read-out: Mean saliva concentration, EM, Mean ± SD
[13] = 30 mg, PM, Day 11, 30 mg q.d. oral, read-out: Mean saliva concentration, PM, Mean ± SD
[14] = 30 mg, PM, Day 16, 30 mg b.i.d. oral, read-out: Mean saliva concentration, PM, Mean ± SD
[15] = 100 mg, EM + paroxetine, Day 21, 100 mg q.d. oral, read-out: Mean saliva concentration, EM + paroxetine, Mean ± SD
[16] = 100 mg, EM, Day 21, 100 mg q.d. oral, read-out: Mean saliva concentration, EM, Mean ± SD
[17] = 100 mg, PM, Day 21, 100 mg q.d. oral, read-out: Mean saliva concentration, PM, Mean ± SD

mean salivary Cav ([1]; 30 mg b.i.d., Cav = AUC (0-24 hr)/24): 4.04 ng/mL
serum Cav corresponding to salivary Cav ([1]; 30 mg b.i.d., salivary Cav divided by fu): 58 ng/mL
concentration at 2 h [1, 3]: 0.5 ± 0.462 ng/mL
concentration at 4 h [1, 3]: 0.632 ± 0.773 ng/mL
concentration at 8 h [1, 3]: 0.533 ± 0.722 ng/mL
concentration at 24 h [1, 3]: 0.192 ± 0.332 ng/mL
concentration at 0 h [1, 4]: 3.21 ± 5.09 ng/mL
concentration at 2 h [1, 4]: 1.92 ± 1.83 ng/mL
concentration at 4 h [1, 4]: 2.97 ± 2.16 ng/mL
concentration at 8 h [1, 4]: 5.68 ± 9.27 ng/mL
concentration at 24 h [1, 4]: 2.16 ± 1.27 ng/mL
concentration at 2 h [1, 5]: 0.545 ± 0.518 ng/mL
concentration at 4 h [1, 5]: 0.524 ± 0.293 ng/mL
concentration at 8 h [1, 5]: 0.313 ± 0.164 ng/mL
concentration at 0 h [1, 6]: 0.27 ± 0.454 ng/mL
concentration at 2 h [1, 6]: 0.541 ± 0.465 ng/mL
concentration at 4 h [1, 6]: 0.987 ± 0.915 ng/mL
concentration at 8 h [1, 6]: 0.805 ± 1.18 ng/mL
concentration at 24 h [1, 6]: 0.418 ± 0.426 ng/mL
concentration at 2 h [1, 7]: 0.517 ± 0.261 ng/mL
concentration at 4 h [1, 7]: 2.23 ± 1.06 ng/mL
concentration at 8 h [1, 7]: 2.31 ± 1.32 ng/mL
concentration at 24 h [1, 7]: 1.05 ± 0.558 ng/mL
concentration at 0 h [1, 8]: 2.93 ± 2.45 ng/mL
concentration at 2 h [1, 8]: 2.85 ± 2.18 ng/mL
concentration at 4 h [1, 8]: 4.69 ± 3.28 ng/mL
concentration at 8 h [1, 8]: 3.23 ± 2.8 ng/mL
concentration at 24 h [1, 8]: 5.51 ± 4.39 ng/mL
concentration at 0 h [1, 9]: 3.86 ± 1.57 ng/mL
concentration at 2 h [1, 9]: 5.98 ± 2.9 ng/mL
concentration at 4 h [1, 9]: 9.51 ± 3.07 ng/mL
concentration at 8 h [1, 9]: 6.3 ± 1.69 ng/mL
concentration at 24 h [1, 9]: 5.59 ± 2.28 ng/mL
concentration at 0 h [1, 10]: 6.16 ± 4.58 ng/mL
concentration at 2 h [1, 10]: 9.11 ± 5.4 ng/mL
concentration at 4 h [1, 10]: 10 ± 6 ng/mL
concentration at 8 h [1, 10]: 9.69 ± 4.74 ng/mL
concentration at 24 h [1, 10]: 9.67 ± 5.91 ng/mL
concentration at 0 h [1, 11]: 1.16 ± 1.81 ng/mL
concentration at 2 h [1, 11]: 3.07 ± 2.77 ng/mL
concentration at 4 h [1, 11]: 4.03 ± 4.1 ng/mL
concentration at 8 h [1, 11]: 3.18 ± 2.99 ng/mL
concentration at 24 h [1, 11]: 1.92 ± 3.13 ng/mL
concentration at 0 h [1, 12]: 2.44 ± 4.17 ng/mL
concentration at 2 h [1, 12]: 2.91 ± 2.49 ng/mL
concentration at 4 h [1, 12]: 4.57 ± 3.03 ng/mL
concentration at 8 h [1, 12]: 3.44 ± 3.67 ng/mL
concentration at 24 h [1, 12]: 5.08 ± 7.08 ng/mL
concentration at 0 h [1, 13]: 8.31 ± 6.8 ng/mL
concentration at 2 h [1, 13]: 6.96 ± 3.73 ng/mL
concentration at 4 h [1, 13]: 11.1 ± 8.5 ng/mL
concentration at 8 h [1, 13]: 14 ± 9.7 ng/mL
concentration at 24 h [1, 13]: 11.8 ± 9.3 ng/mL
concentration at 0 h [1, 14]: 15 ± 10.9 ng/mL
concentration at 2 h [1, 14]: 11.4 ± 6.5 ng/mL
concentration at 4 h [1, 14]: 12.9 ± 7.5 ng/mL
concentration at 8 h [1, 14]: 13.3 ± 9.9 ng/mL
concentration at 24 h [1, 14]: 21.5 ± 18.4 ng/mL
concentration at 24 h ([1]; 100 mg q.d., EM + paroxetine, Day 21, 100 mg q.d. oral, read-out: Mean saliva concentration, EM + paroxetine, Mean ± SD): 15.7 ± 8.8 ng/mL
concentration at 24 h ([1]; 100 mg q.d., EM, Day 21, 100 mg q.d. oral, read-out: Mean saliva concentration, EM, Mean ± SD): 12.5 ± 15.4 ng/mL
concentration at 24 h ([1]; 100 mg q.d., PM, Day 21, 100 mg q.d. oral, read-out: Mean saliva concentration, PM, Mean ± SD): 46.4 ± 27.1 ng/mL
concentration at 0 h [1, 15]: 12.2 ± 2.7 ng/mL
concentration at 2 h [1, 15]: 35.5 ± 24.7 ng/mL
concentration at 4 h [1, 15]: 44.1 ± 32.3 ng/mL
concentration at 8 h [1, 15]: 27.2 ± 10 ng/mL
concentration at 0 h [1, 16]: 6.94 ± 6.81 ng/mL
concentration at 2 h [1, 16]: 19.1 ± 16.6 ng/mL
concentration at 4 h [1, 16]: 21.2 ± 13.6 ng/mL
concentration at 8 h [1, 16]: 14.6 ± 8.6 ng/mL
concentration at 0 h [1, 17]: 32.9 ± 17.1 ng/mL
concentration at 2 h [1, 17]: 23.1 ± 12.1 ng/mL
concentration at 4 h [1, 17]: 46.2 ± 29.1 ng/mL
concentration at 8 h [1, 17]: 41.3 ± 26.2 ng/mL
stock solution stable over period [2]: ≥ 93 days
SMILES: COc1ccc(OC(F)(F)F)cc1CNC1CCCNC1c1ccccc1 (centres unmarked) [Compound 122, (2-methoxy-5-trifluoromethoxy-benzyl)-(2-phenyl-piperidin-3-yl)-amine]
